{"source": "patent US9707239B2", "about": "“Compounds that modulate oxidative stress” (vTv Therapeutics LLC, priority 2011, dated 2017)", "key": {"NHLF cells [1]": {"test_system": "NHLF cells", "test": "Cytoprotection of cisplatin (CDDP)-treated NHLF cells (propidium iodide staining)", "type": "cell-based", "conditions": "NHLF cells, compound 24 hours prior to cisplatin exposure, FIG. 8", "protocol": "(§1) A key outcome of Bach1 derepression and Nrf2 activation are the induction of cytoprotective genes. A method to test such cytoprotection is to assess the ability of a compound to protect normal human cells such as lung fibroblasts from toxicity due to cisplatin exposure. A model of cellular cytoprotection was established whereby normal human lung fibroblasts were treated with Bach1 modulators and then subsequently exposed to cisplatin. NHLF cells are very sensitive to cisplatin exposure; following a dose of 200 uM cisplatin, >90% of NHLF cells are propidium iodide positive, a measure of cell death."}, "HMOX1 [2]": {"test_system": "HMOX1", "test": "HMOX1 induction in human bone marrow-derived mesenchymal stem cells (Western blotting)", "type": "cell-based", "conditions": "BMMSC, 3 and 10 days of exposure, FIG. 9", "protocol": "Previous work has shown that HMOX1 expression can suppress the differentiation of human bone marrow mesenchymal stem cells (BMMSC) into adipocytes, a process termed adipogenesis [Li et al., Diabetes 57(6):1526-1535 (2008)]. As such, we tested Bach1 modulators for the ability to suppress BMMSC differentiation into adipocytes in the presence of high glucose containing media. Two Bach1 modulators and a null compound were tested to determine the ability of the compounds to induce HMOX1 after 3 and 10 days of exposure to compound."}, "[3]": {"test_system": "human bone marrow mesenchymal stem cells (BMMSC)", "test": "Differentiation of bone marrow mesenchymal stem cells to adipocytes (Oil Red staining)", "type": "cell-based", "conditions": "high glucose, 21 days continuous exposure, FIG. 10", "description": "In this assay, the cells are continuously exposed to compound for 21 days and then tested for the presence of oil-Red staining lipid droplets."}, "HMOX1 [4]": {"test_system": "HMOX1", "test": "HMOX1 induction in NHLF cells in the cisplatin cytoprotection model", "type": "cell-based, human", "conditions": "compound 24 hours prior to cisplatin, FIG. 8", "protocol": "as §1"}, "human Bach1": {"test_system": "human Bach1", "test": "MARE controlled luciferase reporter gene assay in HepG2 cells with or without Bach1 expression", "type": "cell-based", "conditions": "transient transfection, with or without Bach1 expressing plasmid, FIG. 7", "protocol": "The ability of Compound 13 to act in a manner similar to CoPP provides evidence for the hypothesis that Bach1 activity is being modulated by the compounds. […] To that end, expression vectors were prepared which contained the HMOX1 mARE promoter element recognized by both Bach1 and Nrf2. This element was placed in control of the reporter gene luciferase. Under conditions of transient transfection of HepG2 cells, the reporter has a low level of basal activity due to the relative ratio of Bach1 and Nrf2 found in the cell. Co-transfection with a Bach1 expressing plasmid leads to repression of luciferase activity. Therefore, one can test whether the compounds can increase the level of luciferase in the cells, thus overcoming Bach1 repression. […] Thus, the tested compound is able to overcome suppression by additional Bach1."}, "Nrf2": {"test_system": "Nrf2", "test": "HMOX1 mRNA induction after Nrf2 siRNA silencing", "type": "cell-based, human", "conditions": "NHLF cells, 50 nM siRNA 48 hours, FIG. 5", "protocol": "Small interfering RNA targeting Nrf-2 (cat# SI03246614) or KEAP-1 (cat# SI03246439) were obtained from Qiagen at 20 nmol/tube. Negative control siRNA (cat#1027280) was also obtained from Qiagen. Lyophilized siRNA in each tube was resuspended with 1 ml of the provided siRNA Suspension Buffer to make a stock solution of 20 μM and tubes were heated at 90° C. for one minute and then at 37° C. for one hour prior to initial use.\nNormal human lung fibroblasts were plated at 5000 cells/well in 96-well plates and allowed to attach. Prior to experiments, well s containing the cells were refreshed with 30 μl of complete growth medium. For each siRNA type, a 4× concentration (200 nM) of siRNA was prepared by adding 11 μl of siRNA stock into 1.1 ml of serum-free medium containing 9 μl/ml of SILENTFECT Lipid Reagent (BioRad, cat#170-3361). This solution was incubated at room temperature for 20 minutes prior to adding 10 μl into each well for a final concentration of 50 nM siRNA. Cells were incubated with siRNA for 48 hours, after which they were treated with compound for either 5 hours (QuantiGene RNA assay) or 15 hours (protein immunofluorescence assay).\nThe predicted response profile is that silencing of Nrf2 should reduce the amount of HMOX1 induction by Compound 13 and other HMOX1 inducers that are electrophiles or reactive compounds. To that end, Compound 13 and other tool compounds were tested in cells that were treated with siRNA directed to Nrf2. Following gene silencing with specific siRNA or control siRNA, the ability of tool compounds to induce HMOX1 mRNA was determined."}, "NHLF cells [5]": {"test_system": "NHLF cells", "test": "ROS measurements (H2DCF-DA imaging)", "type": "cell-based, human", "conditions": "1 hr, cell-by-cell imaging, FIG. 3A/3B", "protocol": "Secondary growth of NHLF cells were used for all assays. Cells were cultured as above. Cells were plated into 384-well BD-Optilux Plates at 2,000 cells/well and cultured overnight at 37° C. and 5% CO2. The following day, cell were washed and 2,7-dihydrodichlorofluorescin diacetate (H2DCF-DA), 10 μM ferric ammonium citrate (FAC), and Hoechst stain were added to cells for 30 min. The cells were washed once with PBS to remove any H2DCF-DA not taken up by cells. Test compounds were prepared in FBM-2 media at the desired concentrations. The plates and stain-treated cells were incubated with test compounds for 1 hr at 37° C. and 5% CO2. Following the incubation period, ROS generation was determined by imaging the cells on a GE INcell 1000 imager (Hoechst Ex. 360 Em. 535; H2DCF-DA 488 Ex. 480 Em. 535). ROS levels were determined and quantified using GE IN Cell Analyzer Software.\nIn addition to gene profiling, the requirement for ROS generation or chemical reactivity was tested. ROS generation was measured using an automated imaging technique. Compound 13 as well as two other compounds that were found in the screening set were tested in this experiment. Untreated NHLF cells, NHLF cells treated with the HMOX1 inducer CoPP (a negative control), and NHLF cells treated with curcumin or celestrol (positive controls) were included as controls. […] Further experiments were also conducted on chemical derivatives of Compound 13. In those experiments, all compounds tested were found not to induce an elevation of ROS levels in the cell (FIG. 3B). Thus, Compound 13 and related compounds represent a class of agents that elevate HMOX1 production without elevating ROS production."}, "HMOX1 [6]": {"test_system": "HMOX1", "test": "Effect of NAC on compound induction of HMOX gene expression", "type": "cell-based, human", "conditions": "NHLF cells pretreated with 5 mM NAC 1 hr, compound 6 h, FIG. 4", "protocol": "NHLF cells were grown to 80% confluency and harvested by washing once with HEPES and then trypsinizing. Equal numbers (7×10^4 cells per well) of NHLF cells were plated in 96 well tissue culture (Corning) plates. Cells were incubated overnight in FGM-2 medium prior to exposure to compound. Cells were pretreated with 5 mM N-acetyl cysteine for 1 hr. Cells were treated with either DMSO or compound for 6 h. Preparation of cell lysates was carried out according to Quantigene Reagent system 2.0 protocol (Panomics). Heme oxygenase mRNA induction was detected from cell lysate using the Quantigene Plex 2.0 Assay Kit (Panomics) on the Luminex platform (BIO-RAD). Expression of GAPDH mRNA was used as the internal control for the Quantigen Plex 2.0 Assay. Heme oxygenase data represents the fold change, normalized to control values, above DMSO treated cells.\nA further test of the hypothesis that Compound 13 induces HMOX1 with minimal alteration of cellular redox levels or chemical reactivity was carried out by treating cells with N-acetyl cysteine (NAC). This compound acts to restore cellular glutathione levels and thus prevent oxidative stress. The degree to which NAC can suppress HMOX1 induction is an indicator of the amount of chemical reactivity or ROS stress that a compound is imposing on the cell and thus activating phase II gene transcription. […] Coupled with the data shown in FIG. 3, it is concluded that Compound 13 induces HMOX1 with minimal elevation of ROS or NAC-sensitive chemical reactivity."}}, "note": "“Also recorded” adds a separate entry of the source."}
{"compound": "Cn1c(Nc2nc3ccc(Cl)cc3s2)nc2cc(C(=O)NCC(=O)O)ccc21", "note": "[Compound 12, {[2-(6-Chloro-benzothiazol-2-ylamino)-1-methyl-1H-benzoimidazole-5-carbonyl]-amino}-acetic acid]", "values": [{"measurement": "protection against cisplatin toxicity", "setting": "NHLF cells [1]", "result": "failed to protect NHLF cells against cisplatin toxicity; also recorded: failed to protect cells from CDDP-mediated cytotoxicity"}, {"measurement": "HMOX1 induction by Western blotting", "setting": "HMOX1 [2]", "result": "failed to induce HMOX1"}, {"measurement": "inhibition of adipogenesis (Oil Red staining)", "setting": "[3]", "result": "fails to inhibit adipogenesis; also recorded: failed to do so"}, {"measurement": "HMOX1 induction", "setting": "HMOX1 [4]", "result": "inactive HMOX1 inducers; also recorded: did not induce HMOX1"}]}
{"compound": "CNC(=O)c1ccc2[nH]c(Nc3nc4ccc(OC(F)(F)F)cc4s3)nc2c1", "note": "[Compound 7, 2-(6-Trifluoromethoxy-benzothiazol-2-ylamino)-1H-benzoimidazole-5-carboxylic acid methylamide]", "values": [{"measurement": "luciferase activity of HMOX1 mARE reporter", "setting": "human Bach1", "result": "able to induce luciferase activity in the presence or absence of Bach1 protein expression; also recorded: can overcome this repression"}]}
{"compound": "Cn1c(Nc2nc3ccc(OC(F)(F)F)cc3s2)nc2cc(C(=O)NCCOCCO)ccc21", "note": "[Compound 10, 1-Methyl-2-(6-trifluoromethoxy-benzothiazol-2-ylamino)-1H-benzoimidazole-5-carboxylic acid [2-(2-hydroxy-ethoxy)-ethyl]-amide]", "values": [{"measurement": "protection against cisplatin toxicity", "setting": "NHLF cells [1]", "result": "near-total cellular protection; also recorded: protect the cells from CDDP-mediated toxicity"}, {"measurement": "HMOX1 induction by Western blotting", "setting": "HMOX1 [2]", "result": "induced HMOX1"}, {"measurement": "inhibition of adipogenesis (Oil Red staining)", "setting": "[3]", "result": "suppress Oil-O red staining; also recorded: inhibited stem cell differentiation"}, {"measurement": "HMOX1 induction", "setting": "HMOX1 [4]", "result": "induced HMOX1"}]}
{"compound": "CC(C)(C)N1C(=O)C=C(c2cccc(-n3cc(-c4ccc(Cl)cc4Cl)nc3Cc3ccc(Br)cc3)c2)S1(=O)=O", "note": "[Compound 15, 5-{3-[2-(4-Bromo-benzyl)-4-(2,4-dichloro-phenyl)-imidazol-1-yl]-phenyl}-2-tert-butyl-1,1-dioxo-1,2-dihydro-isothiazol-3-one]", "values": [{"measurement": "HMOX1 mRNA induction with siRNA directed to Nrf2", "setting": "Nrf2", "result": "affected by the presence of the siRNA for Nrf2; also recorded: requires Nrf2 for full induction of HMOX1 mRNA"}, {"measurement": "ROS production (in words)", "setting": "NHLF cells [5]", "result": "elevated ROS levels to a greater degree than did Compound 13; also recorded: little increase in ROS production"}, {"measurement": "effect of N-acetyl cysteine (NAC) on HMOX1 induction", "setting": "HMOX1 [6]", "result": "inhibited nearly fully by NAC; also recorded: fully suppressed in the presence of NAC"}]}
{"compound": "CN(C)C(=O)CNC(=O)c1ccc2c(c1)nc(Nc1nc3ccc(OC(F)(F)F)cc3s1)n2C", "note": "[Compound 9, 1-Methyl-2-(6-trifluoromethoxy-benzothiazol-2-ylamino)-1H-benzoimidazole-5-carboxylic acid dimethylcarbamoylmethyl-amide]", "values": [{"measurement": "protection against cisplatin toxicity", "setting": "NHLF cells [1]", "result": "near-total cellular protection; also recorded: protect the cells from CDDP-mediated toxicity"}, {"measurement": "HMOX1 induction by Western blotting", "setting": "HMOX1 [2]", "result": "induced HMOX1"}, {"measurement": "inhibition of adipogenesis (Oil Red staining)", "setting": "[3]", "result": "suppress Oil-O red staining; also recorded: inhibited stem cell differentiation"}, {"measurement": "HMOX1 induction", "setting": "HMOX1 [4]", "result": "induced HMOX1"}]}
{"compound": "CC(C)(C)N1C(=O)C=C(c2cccc(N(CC(=O)c3ccc(Cl)cc3Cl)C(=O)Cc3ccc(Br)cc3)c2)S1(=O)=O", "note": "[Compound 14, 2-(4-Bromo-phenyl)-N-[3-(2-tert-butyl-1,1,3-trioxo-2,3-dihydro-1H-isothiazol-5-yl)-phenyl]-N-[2-(2,4-dichloro-phenyl)-2-oxo-ethyl]-acetamide]", "values": [{"measurement": "HMOX1 mRNA induction with siRNA directed to Nrf2", "setting": "Nrf2", "result": "affected by the presence of the siRNA for Nrf2; also recorded: requires Nrf2 for full induction of HMOX1 mRNA"}, {"measurement": "ROS production (in words)", "setting": "NHLF cells [5]", "result": "elevated ROS levels to a greater degree than did Compound 13; also recorded: little increase in ROS production"}, {"measurement": "effect of N-acetyl cysteine (NAC) on HMOX1 induction", "setting": "HMOX1 [6]", "result": "inhibited nearly fully by NAC; also recorded: fully suppressed in the presence of NAC"}]}
